In ChEMBL document CHEMBL1131773, “Synthesis and structure-activity relationships of new non-steroidal progesterone receptor ligands” (Bioorg Med Chem Lett, 1999):

Biological target: T1, Progesterone receptor (Homo sapiens) (UniProt P06401)
T1 sequence (whole entry): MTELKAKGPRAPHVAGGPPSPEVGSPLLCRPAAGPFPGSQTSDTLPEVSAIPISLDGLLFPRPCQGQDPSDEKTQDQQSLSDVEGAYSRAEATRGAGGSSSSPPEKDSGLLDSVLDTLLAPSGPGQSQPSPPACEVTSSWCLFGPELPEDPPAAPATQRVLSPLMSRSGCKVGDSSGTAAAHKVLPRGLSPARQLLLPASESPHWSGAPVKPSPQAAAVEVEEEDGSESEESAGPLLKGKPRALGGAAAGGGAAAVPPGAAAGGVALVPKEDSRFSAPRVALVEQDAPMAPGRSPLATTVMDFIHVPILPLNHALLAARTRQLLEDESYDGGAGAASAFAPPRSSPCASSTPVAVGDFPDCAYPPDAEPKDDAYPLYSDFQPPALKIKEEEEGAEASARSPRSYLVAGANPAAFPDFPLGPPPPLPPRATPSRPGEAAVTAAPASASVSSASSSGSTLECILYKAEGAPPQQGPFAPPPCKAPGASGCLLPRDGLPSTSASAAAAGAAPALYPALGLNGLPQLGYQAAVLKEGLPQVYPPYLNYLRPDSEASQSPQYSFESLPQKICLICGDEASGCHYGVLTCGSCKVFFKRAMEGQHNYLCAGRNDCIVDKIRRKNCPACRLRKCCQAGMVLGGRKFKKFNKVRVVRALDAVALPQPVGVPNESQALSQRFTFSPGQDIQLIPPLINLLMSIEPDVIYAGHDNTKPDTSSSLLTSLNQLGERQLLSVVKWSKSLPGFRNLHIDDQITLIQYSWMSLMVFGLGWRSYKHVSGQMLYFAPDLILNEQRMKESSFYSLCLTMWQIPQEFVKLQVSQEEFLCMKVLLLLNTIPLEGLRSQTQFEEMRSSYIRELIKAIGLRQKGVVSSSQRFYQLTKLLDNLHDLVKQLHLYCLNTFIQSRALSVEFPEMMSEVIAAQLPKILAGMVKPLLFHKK
Assay: Relative Binding affinity(RBA) to human progesterone receptor(PR) compared to PF1092A; (RBA= IC50 of PF1092A/ IC50 of test compound at human PR)

Row | Structure (SMILES) | relative binding affinity (RBA)
1 | CC(=O)O[C@H]1[C@H](C)C=C2C=C3OC(=O)C(C)=C3C[C@]2(C)[C@H]1C | 1.6
2 | CC(=O)O[C@H]1CC=C2C=C3OC(=O)C(C)=C3C[C@]2(C)C1 | 0.08
3 | CC(=O)O[C@H]1[C@@H](O)C=C2C=C3OC(=O)C(C)=C3C[C@]2(C)[C@H]1C | 1
4 | CC(=O)O[C@H]1CC=C2C=C3OC(=O)C=C3C[C@]2(C)[C@H]1C | 1.2
5 | CC(=O)O[C@H]1CC=C2C=C3OC(=O)C(C)=C3[C@H](C)[C@]2(C)[C@H]1C | 0.8

Continued, values first:

Row | relative binding affinity (RBA) | Structure (SMILES)
6 | 0.7 | CO[C@H]1[C@@H](OC(C)=O)CC=C2C=C3OC(=O)C(C)=C3C[C@@]21C
7 | 0.8 | CC(=O)O[C@H]1CC=C2C=C3OC(=O)C(C)=C3C[C@]2(C)[C@H]1C
8 | 0.07 | CC(=O)O[C@H]1CC=C2C(C)=C3OC(=O)C(C)=C3C[C@]2(C)[C@H]1C
9 | 0.2 | CCC1=C2C[C@@]3(C)C(=CC[C@H](OC(C)=O)[C@@H]3C)C=C2OC1=O
